Measured values as given in US8404683B2, “Inhibitors of the interaction between MDM2 and P53” (Janssen Pharmaceutical N.V., priority 2004, dated 2013).

Tested on: U87MG cells
Test: Proliferation assay (MTT-based) on U87MG tumour cells
Details: Homo sapiens, U-87 MG, 96 h, 4 days of incubation, negative log value of the IC50-value, read-out: cell proliferation pIC50 (converted)
Experimental: U87MG cells are human glioblastoma cells with wild type p53. In this cell line MDM2 tightly controls p53 expression.
Cellular activity of the compounds of formula (I) was determined on U87MG tumour cells using a colorimetric assay for cell toxicity or survival (see example C.2).
All compounds tested were dissolved in DMSO and further dilutions were made in culture medium. Final DMSO concentrations never exceeded 0.1% (v/v) in cell proliferation assays. Controls contained U87MG cells and DMSO without compound and blanks contained DMSO but no cells.
U87MG cells were seeded in 96-well cell culture plates at 3000 cells/well/100 μl. 24 hours later, medium was changed and compound and/or solvent were added to a final volume of 200 μl. Following 4 days of incubation, medium was replaced by 200 μl fresh medium and cell growth was assessed using a MTT-based assay. Therefore, 25 μl of the MTT solution (0.5% MTT research grade from Serva in phosphate-buffered saline) was added to each well and the cells were further incubated for 2 hours at 37° C. The medium was then carefully aspirated and the blue MTT-formazan product was dissolved by adding to each well 25 μl 0.1 M glycin and 100 μl DMSO. The plates were shaken for another 10 min on a micro plate shaker before reading absorbance at 540 nm by a Biorad micro plate reader.
Within an experiment, the results for each experimental condition are the mean of 3 replicate wells. For initial screening purposes, compounds were tested at a single fixed concentration of 10^−5 M. For active compounds, the experiments were repeated to establish full concentration-response curves. For each experiment, controls (containing no drug) and a blank incubation (containing no cells or drugs) were run in parallel. The blank value was subtracted from all control and sample values. For each sample, the mean value for cell growth (in absorbance units) was expressed as a percentage of the mean value for cell growth of the control. When appropriate, IC50-values (concentration of the drug, needed to reduce cell growth to 50% of the control) were computed using probit analysis for graded data (Finney, D. J., Probit Analyses, 2nd Ed. Chapter 10, Graded Responses, Cambridge University Press, Cambridge 1962). Herein the effects of test compounds are expressed as pIC50 (the negative log value of the IC50-value) (see table F-2).

SMILES | IC50
c1ccc2c(Nc3ccc(NCCc4c[nH]c5ccccc45)cc3)ccnc2c1 [Compound 1] | < 10 nM
CCOc1cc(Nc2ccncc2)ccc1NCCc1c[nH]c2ccccc12 [Compound 2] | 63.1 nM
c1ccc2c(CCNc3ccc(Nc4ccnc5c4CCC5)cc3)c[nH]c2c1 [Compound 4] | 10 nM
c1cncc(Nc2ccc(NCCc3c[nH]c4ccccc34)cc2)c1 [Compound 6] | 3160 nM
Cn1cc(CCN(c2ccncc2)c2ccc(Nc3ccncc3)cc2)c2ccccc21 [Compound 10] | 1260 nM
Cc1cc(Nc2ccc(NCCc3c[nH]c4ccccc34)cc2)c2ccccc2n1 [Compound 12] | 12.6 nM
COc1ccc2c(CCNc3ccc(Nc4ccnc5ccccc45)cc3)c[nH]c2c1 [Compound 13] | 25.1 nM
COC(=O)c1ccc2nc(C)cc(Nc3ccc(NCCc4c[nH]c5ccccc45)cc3)c2c1 [Compound 15] | 50.1 nM
c1ccc(COc2cc(Nc3ccnc4ccccc34)ccc2NCCc2c[nH]c3ccccc23)cc1 [Compound 17] | 631 nM
NC(=O)C(Cc1c[nH]c2ccccc12)Nc1ccc(Nc2ccnc3ccccc23)cc1 (stereo not shown) [Compound 18] | 501 nM
Cc1cc(Nc2ccc(NCCc3c[nH]c4ccccc34)cc2)c2cc(CO)ccc2n1 [Compound 19] | 200 nM
COc1ccc2nc(C)cc(Nc3ccc(NCCc4c[nH]c5ccccc45)cc3)c2c1 [Compound 20] | 100 nM
COc1cccc2c(Nc3ccc(NCCc4c[nH]c5ccccc45)cc3)ccnc12 [Compound 21] | 10 nM
O=[N+]([O-])c1cccc2c(Nc3ccc(NCCc4c[nH]c5ccccc45)cc3)ccnc12 [Compound 23] | 398 nM
Nc1cccc2c(Nc3ccc(NCCc4c[nH]c5ccccc45)cc3)ccnc12 [Compound 25] | 39.8 nM
Cn1cc(CCNc2ccc(Nc3ccnc4ccccc34)cc2)c2ccccc21 [Compound 28] | 200 nM
N#Cc1ccc2nccc(Nc3ccc(NCCc4c[nH]c5ccccc45)cc3)c2c1 [Compound 29] | 251 nM
FC(F)(F)c1cccc2c(Nc3ccc(NCCc4c[nH]c5ccccc45)cc3)ccnc12 [Compound 31] | 1260 nM
CCOc1cc(Nc2ccnc3ccccc23)ccc1NCCc1c[nH]c2ccccc12 [Compound 35] | 39.8 nM
c1ccc2c(CCNc3ccc(Nc4ccncc4)cc3)c[nH]c2c1 [Compound 36] | 200 nM
Cc1cc(Nc2ccc(NCCc3c[nH]c4ccccc34)cc2)ccn1 [Compound 46] | 251 nM
Cc1cc(Nc2ccncc2)ccc1NCCc1c[nH]c2ccccc12 [Compound 47] | 158 nM
O=C(c1cc(Nc2ccc(NCCc3c[nH]c4ccccc34)cc2)ccn1)N1CCCC1 [Compound 49] | > 10000 nM
Clc1ccc2c(CCNc3ccc(Nc4ccncc4)cc3)c[nH]c2c1 [Compound 50] | 100 nM

SMILES | IC50
c1ccc2c(CCNc3ccc(Nc4ccnc(CN5CCCC5)c4)cc3)c[nH]c2c1 [Compound 53] | 631 nM
COc1ccc2c(CCNc3ccc(Nc4ccncc4)cc3)c[nH]c2c1 [Compound 54] | 126 nM
NCc1cc(Nc2ccc(NCCc3c[nH]c4ccccc34)cc2)ccn1 [Compound 55] | 501 nM
O=C(c1ccccc1)c1cc(Nc2ccc(NCCc3c[nH]c4ccccc34)cc2)ccn1 [Compound 56] | 2510 nM
OC(c1ccccc1)c1cc(Nc2ccc(NCCc3c[nH]c4ccccc34)cc2)ccn1 (stereo not shown) [Compound 57] | 794 nM
O=C(O)c1cc(Nc2ccc(NCCc3c[nH]c4ccccc34)cc2)ccn1 [Compound 58] | > 10000 nM
CN(C)CCNCc1cc(Nc2ccc(NCCc3c[nH]c4ccccc34)cc2)ccn1 [Compound 59] | 398 nM
c1ccc(COc2cc(Nc3ccncc3)ccc2NCCc2c[nH]c3ccccc23)cc1 [Compound 61] | 316 nM
COc1cc(Nc2ccncc2)ccc1NCCc1c[nH]c2ccccc12 [Compound 66] | 63.1 nM
O=C(OCc1ccccc1)C(Cc1c[nH]c2ccccc12)Nc1ccc(Nc2ccncc2)cc1 (stereo not shown) [Compound 67] | 1260 nM
c1ccc2c(c1)NCC2CCNc1ccc(Nc2ccncc2)cc1 (stereo not shown) [Compound 68] | 2510 nM
c1ccc2c(CCCNCc3ccc(Nc4ccncc4)cc3)c[nH]c2c1 [Compound 72] | 2000 nM
c1ccc2c(CCCN(CCCc3c[nH]c4ccccc34)Cc3ccc(Nc4ccncc4)cc3)c[nH]c2c1 [Compound 73] | 501 nM
c1ccc2c(CCCCNc3ccc(Nc4ccncc4)cc3)c[nH]c2c1 [Compound 74] | 1580 nM
c1cncc(Nc2cccc(NCCc3c[nH]c4ccccc34)c2)c1 [Compound 76] | > 10000 nM
Cc1[nH]c2ccccc2c1CCNc1ccc(Nc2ccncc2)cc1 [Compound 77] | 3160 nM
c1cncc(Nc2ccc(NCc3c[nH]c4ccccc34)cc2)c1 [Compound 78] | 10000 nM
c1ccc2c(CNCc3ccc(Nc4ccncc4)cc3)c[nH]c2c1 [Compound 79] | 2510 nM
O=C(CCc1c[nH]c2ccccc12)Nc1cccc(Nc2ccncc2)c1 [Compound 82] | > 10000 nM
CN(c1ccncc1)c1ccc(NCCc2c[nH]c3ccccc23)cc1 [Compound 83] | 3160 nM
c1cc(NCCCc2c[nH]c3ccccc23)cc(Nc2ccncc2)c1 [Compound 84] | 1580 nM
CC(NCCN)c1cc(Nc2ccc(NCCc3c[nH]c4ccccc34)cc2)ccn1 (stereo not shown) [Compound 89] | 3980 nM
c1ccc2c(CCNc3ccc(Nc4ccnc(CN5CCNCC5)c4)cc3)c[nH]c2c1 [Compound 91] | 2510 nM

The remaining lines, values ahead:

IC50 | SMILES
39.8 nM | OCc1cc(Nc2ccc(NCCc3c[nH]c4ccccc34)cc2)c2ccccc2n1 [Compound 14]
39.8 nM | COc1cc(Nc2ccnc3ccccc23)ccc1NCCc1c[nH]c2ccccc12 [Compound 16]
20 nM | Cc1cccc2c(Nc3ccc(NCCc4c[nH]c5ccccc45)cc3)ccnc12 [Compound 22]
< 10 nM | COc1ccc2nccc(Nc3ccc(NCCc4c[nH]c5ccccc45)cc3)c2c1 [Compound 24]
100 nM | Clc1ccc2c(CCNc3ccc(Nc4ccnc5ccccc45)cc3)c[nH]c2c1 [Compound 26]
79.4 nM | Oc1cccc2c(Nc3ccc(NCCc4c[nH]c5ccccc45)cc3)ccnc12 [Compound 27]
316 nM | CCCc1cc(Nc2ccc(NCCc3c[nH]c4ccccc34)cc2)c2ccccc2n1 [Compound 30]
158 nM | COc1ccc2[nH]cc(CCNc3ccc(Nc4ccnc5ccccc45)cc3)c2c1 [Compound 32]
63.1 nM | CCc1cc(Nc2ccc(NCCc3c[nH]c4ccccc34)cc2)c2ccccc2n1 [Compound 33]
50.1 nM | c1ccc2c(c1)NCC2CCNc1ccc(Nc2ccnc3ccccc23)cc1 (stereo not shown) [Compound 34]
158 nM | OCc1cc(Nc2ccc(NCCc3c[nH]c4ccccc34)cc2)ccn1 [Compound 37]
631 nM | c1ccc(-c2cc(Nc3ccc(NCCc4c[nH]c5ccccc45)cc3)ccn2)cc1 [Compound 39]
1000 nM | Clc1cc(Nc2ccncc2)ccc1NCCc1c[nH]c2ccccc12 [Compound 45]
158 nM | OCC(Cc1c[nH]c2ccccc12)Nc1ccc(Nc2ccncc2)cc1 (stereo not shown) [Compound 48]
316 nM | OCCc1cc(Nc2ccc(NCCc3c[nH]c4ccccc34)cc2)ccn1 [Compound 51]
501 nM | O=C(NCCO)c1cc(Nc2ccc(NCCc3c[nH]c4ccccc34)cc2)ccn1 [Compound 52]
100 nM | Cc1cnccc1Nc1ccc(NCCc2c[nH]c3ccccc23)cc1 [Compound 60]
2510 nM | COc1ccc2[nH]cc(CCNc3ccc(Nc4ccncc4)cc3)c2c1 [Compound 62]
1580 nM | CNC(=O)c1cc(Nc2ccc(NCCc3c[nH]c4ccccc34)cc2)ccn1 [Compound 63]
398 nM | COCc1cc(Nc2ccc(NCCc3c[nH]c4ccccc34)cc2)ccn1 [Compound 64]
> 10000 nM | NC(=O)C(Cc1c[nH]c2ccccc12)Nc1ccc(Nc2ccncc2)cc1 (stereo not shown) [Compound 65]
100 nM | CCOc1cc(Nc2ccnc(CO)c2)ccc1NCCc1c[nH]c2cc(OC)ccc12 [Compound 69]
251 nM | O=C(O)Cc1cc(Nc2ccc(NCCc3c[nH]c4ccccc34)cc2)ccn1 [Compound 70]
794 nM | c1ccc2c(CCCNc3ccc(Nc4ccncc4)cc3)c[nH]c2c1 [Compound 71]
3160 nM | c1ccc2c(CCNCCc3ccc(Nc4ccncc4)cc3)c[nH]c2c1 [Compound 75]
158 nM | COc1cc(NCCc2c[nH]c3ccccc23)ccc1Nc1ccncc1 [Compound 85]
> 10000 nM | N#Cc1cc(Nc2ccc(NCCc3c[nH]c4ccccc34)cc2)ccn1 [Compound 86]
3160 nM | CC(NCCNC(=O)OCc1ccccc1)c1cc(Nc2ccc(NCCc3c[nH]c4ccccc34)cc2)ccn1 (stereo not shown) [Compound 88]
2510 nM | O=C(OCc1ccccc1)N1CCN(Cc2cc(Nc3ccc(NCCc4c[nH]c5ccccc45)cc3)ccn2)CC1 [Compound 90]
